From ChEMBL document CHEMBL3885861, “Open TG-GATES”

Species: Rattus norvegicus
Test: Open TG-GATES - Regimen: Daily Repeat
Assay type: toxicity, organism-based, Sprague-Dawley
Parameters: regimen Daily Repeat, gender Male, age 6 weeks
Conditions: in vivo, po, 20 mg/kg, route gavage, dose level High; for APTT / Bas / Eos / Fbg / Hb / Lym / MCH / MCHC / MCV / Mono / Neu / PT / Plat / RBC / Ret / WBC: tissue Blood; for KIDNEY_L / KIDNEY_R / KIDNEY_TOTAL: tissue Kidney; for LIVER: tissue Liver; for ALP / ALT / AST / BUN / CRE / Ca / Cl / DBIL / GLC / IP / K / LDH / Na / PL / RALB / TBIL / TC / TG / TP / gamma-GTP: tissue Plasma

Compound: OCCN1CCN(CCCN2c3ccccc3Sc3ccc(C(F)(F)F)cc32)CC1 [FLUPHENAZINE]
- TERMINAL_BW (72 h, time 3 day): 168.5 g
- APTT (72 h, time 3 day): 13.2 s
- Bas (72 h, time 3 day): 0%
- Eos (72 h, time 3 day): 1.2%
- Fbg (72 h, time 3 day): 176.8 mg/dL
- Hb (72 h, time 3 day): 16 g/dL
- Lym (72 h, time 3 day): 84.6%
- MCH (72 h, time 3 day): 21.1 pg
- MCHC (72 h, time 3 day): 33.1%
- MCV (72 h, time 3 day): 63.6 fL
- Mono (72 h, time 3 day): 5.2%
- Neu (72 h, time 3 day): 9.2%
- PT (72 h, time 3 day): 12.7 s
- Plat (72 h, time 3 day): 131.6 x10_4/uL
- RBC (72 h, time 3 day): 756.8 x10_4/ul
- Ret (72 h, time 3 day): 1.2%
- WBC (72 h, time 3 day): 83.2 x10_2/uL
- KIDNEY_L (72 h, time 3 day): 0.9 g
- KIDNEY_R (72 h, time 3 day): 0.9 g
- KIDNEY_TOTAL (72 h, time 3 day): 1.7 g
- LIVER (72 h, time 3 day): 7.4 g
- ALP (72 h, time 3 day): 538 IU/L
- ALT (72 h, time 3 day): 28 IU/L
- AST (72 h, time 3 day): 76.2 IU/L
- BUN (72 h, time 3 day): 23.4 mg/dL
- CRE (72 h, time 3 day): 0.6 mg/dL
- Ca (72 h, time 3 day): 10.1 mg/dL
- Cl (72 h, time 3 day): 108.4 meq/L
- DBIL (72 h, time 3 day): 0.036 mg/dL
- GLC (72 h, time 3 day): 180.4 mg/dL
- IP (72 h, time 3 day): 7 mg/dL
- K (72 h, time 3 day): 4.2 meq/L
- LDH (72 h, time 3 day): 189 IU/L
- Na (72 h, time 3 day): 140 meq/L
- PL (72 h, time 3 day): 128 mg/dL
- RALB (72 h, time 3 day): 4.2 g/dL
- TBIL (72 h, time 3 day): 0.3 mg/dL
- TC (72 h, time 3 day): 74.6 mg/dL
- TG (72 h, time 3 day): 48.4 mg/dL
- TP (72 h, time 3 day): 5.8 g/dL
- gamma-GTP (72 h, time 3 day): 1 IU/L
- TERMINAL_BW ([…], time 7 day): 190 g
- TERMINAL_BW ([…], time 14 day): 258.2 g
- TERMINAL_BW ([…], time 28 day): 303.2 g
- APTT ([…], time 7 day): 15.9 s
- Bas ([…], time 7 day): 0%
- Eos ([…], time 7 day): 0.4%
- Fbg ([…], time 7 day): 204.6 mg/dL
- Hb ([…], time 7 day): 15.5 g/dL
- Lym ([…], time 7 day): 86.4%
- MCH ([…], time 7 day): 20.9 pg
- MCHC ([…], time 7 day): 33.8%
- MCV ([…], time 7 day): 61.7 fL
- Mono ([…], time 7 day): 4.8%
- Neu ([…], time 7 day): 8.4%
- PT ([…], time 7 day): 12.6 s
- Plat ([…], time 7 day): 95.7 x10_4/uL
- RBC ([…], time 7 day): 745.2 x10_4/ul
- Ret ([…], time 7 day): 2.3%
- WBC ([…], time 7 day): 93.7 x10_2/uL
- APTT ([…], time 14 day): 16.1 s
- Bas ([…], time 14 day): 0%
- Eos ([…], time 14 day): 0.8%
- Fbg ([…], time 14 day): 214.5 mg/dL
- Hb ([…], time 14 day): 14.8 g/dL
- Lym ([…], time 14 day): 80.2%
- MCH ([…], time 14 day): 20.5 pg
- MCHC ([…], time 14 day): 33.3%
- MCV ([…], time 14 day): 61.6 fL
- Mono ([…], time 14 day): 6.2%
- Neu ([…], time 14 day): 13%
- PT ([…], time 14 day): 12.3 s
- Plat ([…], time 14 day): 95.6 x10_4/uL
- RBC ([…], time 14 day): 724 x10_4/ul
- Ret ([…], time 14 day): 3.9%
- WBC ([…], time 14 day): 124.5 x10_2/uL
- APTT ([…], time 28 day): 16.6 s
- Bas ([…], time 28 day): 0%
- Eos ([…], time 28 day): 0.8%
- Fbg ([…], time 28 day): 206 mg/dL
- Hb ([…], time 28 day): 15.6 g/dL
- Lym ([…], time 28 day): 84.2%
- MCH ([…], time 28 day): 19.4 pg
- MCHC ([…], time 28 day): 33.7%
- MCV ([…], time 28 day): 57.7 fL
- Mono ([…], time 28 day): 4%
- Neu ([…], time 28 day): 11%
- PT ([…], time 28 day): 12.3 s
- Plat ([…], time 28 day): 73.1 x10_4/uL
- RBC ([…], time 28 day): 804 x10_4/ul
- Ret ([…], time 28 day): 2.5%
- WBC ([…], time 28 day): 157 x10_2/uL
- KIDNEY_L ([…], time 7 day): 0.9 g
- KIDNEY_R ([…], time 7 day): 0.9 g
- KIDNEY_TOTAL ([…], time 7 day): 1.8 g
- KIDNEY_L ([…], time 14 day): 1 g
- KIDNEY_R ([…], time 14 day): 1 g
- KIDNEY_TOTAL ([…], time 14 day): 2.1 g
- KIDNEY_L ([…], time 28 day): 1.1 g
- KIDNEY_R ([…], time 28 day): 1.2 g
- KIDNEY_TOTAL ([…], time 28 day): 2.3 g
- LIVER ([…], time 7 day): 9 g
- LIVER ([…], time 14 day): 11.9 g
- LIVER ([…], time 28 day): 11.9 g
- ALP ([…], time 7 day): 653.8 IU/L
- ALT ([…], time 7 day): 44.4 IU/L
- AST ([…], time 7 day): 79.6 IU/L
- BUN ([…], time 7 day): 28.8 mg/dL
- CRE ([…], time 7 day): 0.5 mg/dL
- Ca ([…], time 7 day): 10.3 mg/dL
- Cl ([…], time 7 day): 105.4 meq/L
- DBIL ([…], time 7 day): 0.01 mg/dL
- GLC ([…], time 7 day): 158.2 mg/dL
- IP ([…], time 7 day): 7 mg/dL
- K ([…], time 7 day): 4.4 meq/L
- LDH ([…], time 7 day): 195.8 IU/L
- Na ([…], time 7 day): 140.4 meq/L
- PL ([…], time 7 day): 184.6 mg/dL
- RALB ([…], time 7 day): 4.2 g/dL
- TBIL ([…], time 7 day): 0.2 mg/dL
- TC ([…], time 7 day): 101.2 mg/dL
- TG ([…], time 7 day): 98.6 mg/dL
- TP ([…], time 7 day): 6.2 g/dL
- gamma-GTP ([…], time 7 day): 1 IU/L
- ALP ([…], time 14 day): 872 IU/L
- ALT ([…], time 14 day): 44.8 IU/L
- AST ([…], time 14 day): 81.5 IU/L
- BUN ([…], time 14 day): 19.8 mg/dL
- CRE ([…], time 14 day): 0.6 mg/dL
- Ca ([…], time 14 day): 10.8 mg/dL
- Cl ([…], time 14 day): 103.2 meq/L
- DBIL ([…], time 14 day): 0.0025 mg/dL
- GLC ([…], time 14 day): 182.8 mg/dL
- IP ([…], time 14 day): 8.7 mg/dL
- K ([…], time 14 day): 4.2 meq/L
- LDH ([…], time 14 day): 148 IU/L
- Na ([…], time 14 day): 137.2 meq/L
- PL ([…], time 14 day): 141 mg/dL
- RALB ([…], time 14 day): 4.2 g/dL
- TBIL ([…], time 14 day): 0.2 mg/dL
- TC ([…], time 14 day): 66.5 mg/dL
- TG ([…], time 14 day): 86.8 mg/dL
- TP ([…], time 14 day): 6.2 g/dL
- gamma-GTP ([…], time 14 day): 2 IU/L
- ALP ([…], time 28 day): 676.6 IU/L
- ALT ([…], time 28 day): 31.6 IU/L
- AST ([…], time 28 day): 80.2 IU/L
- BUN ([…], time 28 day): 24.2 mg/dL
- CRE ([…], time 28 day): 0.7 mg/dL
- Ca ([…], time 28 day): 10.4 mg/dL
- Cl ([…], time 28 day): 111.2 meq/L
- DBIL ([…], time 28 day): 0.022 mg/dL
- GLC ([…], time 28 day): 170.8 mg/dL
- IP ([…], time 28 day): 6.2 mg/dL
- K ([…], time 28 day): 4.4 meq/L
- LDH ([…], time 28 day): 145.6 IU/L
- Na ([…], time 28 day): 142 meq/L
- PL ([…], time 28 day): 114.4 mg/dL
- RALB ([…], time 28 day): 4.2 g/dL
- TBIL ([…], time 28 day): 0.3 mg/dL
- TC ([…], time 28 day): 57.8 mg/dL
- TG ([…], time 28 day): 35.4 mg/dL
- TP ([…], time 28 day): 6.4 g/dL
- gamma-GTP ([…], time 28 day): 1.4 IU/L
